Experimental data: patent US11167015B2, “Arginine and its use as a T cell modulator” (INSTITUTE FOR RESEARCH IN BIOMEDICINE, priority 2016, dated 2021)

Assays:
[1] = test system: CD44hi CD4+ TCR transgenic T cells; test: Mouse experiment with dietary L-arginine: transferred HA TCR transgenic T cells in draining lymph nodes; assay type: in vivo, BALB/c mice; conditions: daily oral 1.5 mg/g body weight, 15 days after immunization with HA110-119 in CFA
Description: 2×10^5 CD90.1^+ CD4^+ HA TCR-transgenic T cells, on a BALB/c background, were adoptively transferred in Wt CD90.2^4 BALB/c mice. The day after, host mice were immunized s.c. with influenza HA110-119 peptide (purchased from Anaspec) emulsified in CFA. L-Arg (1.5 g/kg body weight) or PBS, as control, was daily orally administrated, starting 1 day before T cell transfer and until the end of the experiment. Draining lymph nodes were analyzed on day 15 post immunization for the presence of transferred transgenic memory CD44^hi CD90.1^+ CD4^+ T cells. Sera were collected 30 min after oral L-arginine administration to mice and L-arginine and L-threonine concentrations in sera were measured on a MassTrak (Waters) instrument at the functional genomics center in Zurich. To determine intracellular L-arginine levels, activated T cells were isolated from draining lymph nodes 60 hours after activation and 30 min after the daily L-arginine administration. Metabolites were extracted with hot 70% ethanol and analyzed by HILIC LC-MS/MS.

Naïve CD8+ OT-I T cells = test: Tcm-like phenotype and IFN-γ of OT-I T cells after in vitro priming; assay type: cell-based, mouse
Text: FIG. 7. CD8+ T cells with increased L-arginine levels display improved anti-tumor activity in vivo. (A) Survival of activated mouse CD8+OT-I T cells (4 d) after IL-2 withdrawal. Data points represent the difference between the percentage of living T cells from cultures performed in L-Arg medium or Ctrl medium; n=11. (B) CD90.1+CD45.1/2+ and CD90.1+CD45.1+ naïve CD8+ OT-I T cells were activated for 4 days in Ctrl medium or L-Arg medium, respectively. Equal numbers of the congenically marked activated OT-I cells were co-transferred into Cd3e−/− mouse and the number of living T cells was measured in pooled spleen and lymph nodes at the indicated time points; n=3 at each time point. (C) Naïve CD8+ OT-I T cells were activated with CD3+CD28 antibodies in L-Arg medium or control (Ctrl) medium. Five days after activation, the percentage of Tcm-like cells (CD44hi, CD62L+) was measured by flow cytometry; n=15. (D) Naïve OT-I CD8+ T cells were activated in L-Arg medium or Ctrl medium and IFN-γ was quantified in culture supernatants after 5 days; n=15. (E) Same as in (D) but T cells were re-activated on day 5 day with PMA/Ionomycin; n=15. (F, G) B16.OVA melanoma cells were injected into C57BL/6 mice and tumors were allowed to grow for 10 days. Naïve OT-I CD8+ T cells were activated in vitro in L-Arg medium or Ctrl medium and injected into tumor bearing mice. Tumor burden (F) and survival (G) were assessed over time. Data are representative of three independent experiments, each performed with 7-9 mice per group. (H) B16.OVA melanoma cells were injected into C57BL/6 mice and tumors were allowed to grow for 6 clays. At day 6, naïve CD8+ OT-I T cells were transferred into tumor bearing mice and at day 7 mice were immunized with OVA peptide. Starting one day before the T cell transfer, PBS or L-arginine (1.5 mg/g body weight) was orally administered daily; n=19 from three independent experiments. Bars represent the s.e.m. *p<0.05, **p<0.01, ***p<0.001, ****p<0.0001 (Student's t-test). In (G) *p<0.05 as determined by log-rank test comparison between curves. […]

SMILES: N=C(N)NCCC[C@H](N)C(=O)O [L-arginine]
- CD44hi CD4+ TCR transgenic T cells recovered in draining lymph nodes compared to control mice [1]: Three times more
- Tcm-like state (CD44hi, CD62L+) (Naïve CD8+ OT-I T cells; five days after activation in L-Arg medium): maintained a Tcm-like state
- IFN-γ production upon reactivation (Naïve CD8+ OT-I T cells; re-activated on day 5 with PMA/Ionomycin): even more IFN-γ than controls
- IFN-γ secretion after in vitro priming (Naïve CD8+ OT-I T cells; supernatants after 5 days): secreted less IFN-γ than controls
